Type in all cases: cell-based
Data set [1] concerns colon cancer cell line HT29. Description: Growth profile / viability of HT29 colon cancer cells, XTT test. The settings on record: Homo sapiens, HT-29, 96 h, Control DMSO = 100%, read-out: percentage of viable cells, HT29. As to the method:
(§1) The effect of the compounds Z522-XXX on the growth profile of cancer cells which express Fer was tested. The cells that were tested were: the colon cancer cell lines HT29 and HCT 116, RKO. The effect of each of the compounds on FS cells, a non malingnant fibroblastic cell line, was also studied.
(§2) Generally, cells were seeded in 96 wells microplates and were left to grow untreated overnight. Each of the compounds was dissolved in DMSO and was then added to each well in a final concentration of 5 μM. The concentration of DMSO in each well was 0.4% v/v. Untreated cells and cells subjected to 0.4% DMSO alone, served as controls. The percentage of viable cells in each well was determined 96 hours after compounds addition, using the XTT test (Berridge, M. V. et al, 2005).
On the technique in general: Tetrazolium dyes change colour on reduction, which living cells bring about.

The test system of data set [2] is colon cancer cell line RKO. Description: Growth profile / viability of RKO colon cancer cells, XTT test. The settings on record: 96 h, Control DMSO = 100%, read-out: percentage of viable cells, RKO. The method, then: as §1, §2
A short description of data set [3]: Viability of FS non malignant fibroblastic cells, XTT test. The settings on record: FS cells (non-malignant fibroblastic cell line), Control DMSO = 100%, read-out: percentage of viable cells, FS. The method, then:
as §1, §2

Data set [4] has as its system colon cancer cell line HCT 116. Description: Growth profile / viability of HCT116 colon cancer cells, XTT test. The settings on record: Homo sapiens, HCT-116, 96 h, Control DMSO = 100%, read-out: percentage of viable cells, HCT116. As to the method:
as §1, §2

Molecules are shown by their SMILES. Like-named read-outs stand apart in the source and are kept apart here.

As for `CC(C)c1ccc(-c2cn3nc(N4CCC(C(=O)N5CCN(c6ncccn6)CC5)CC4)sc3n2)cc1` [Compound Z522-0227, 6-(4-isopropyl-phenyl)-2-{4-[(4-pyrimidin-2-ylpiperazin-1-yl)carbonyl]piperidin-1-yl}imidazo[2,1-b][1,3,4]thiadiazole], the viability at 5 µM in data set [1] (first HT29 column) is 91%; in data set [1] (second HT29 column), 91%; in data set [2] (first RKO column), 63%; in data set [2] (second RKO column) it was 63%; in data set [4] (first HCT116 column) it was 72%; in data set [4] (second HCT116 column), 84%. Moreover, the viability at 96 h, 5 µM came out at 89% in data set [3] (first FS column) and 91% in data set [3] (second FS column).
With `CC(C)c1ccc(-c2cn3nc(N4CCC(C(=O)N5CCCCC5CN5CCCC5)CC4)sc3n2)cc1` (centres unmarked) [Compound Z522-0235, 6-(4-isopropylphenyl)-2-(4-{[2-(pyrrolidin-1-ylmethyl)piperidin-1-yl]carbonyl}piperidin-1-yl)imidazo[2,1-b][1,3,4]thiadiazole], the viability at 96 h, 5 µM in data set [3] (second FS column) was 14%. Also, the viability at 5 µM in data set [4] (first HCT116 column) and in data set [4] (second HCT116 column) was 1% in each case.
In the case of `CC(C)c1ccc(-c2cn3nc(N4CCC(C(=O)N(C)C5CCN(C)CC5)CC4)sc3n2)cc1` [Compound Z522-0225, 1-[6-(4-isopropylphenyl)imidazo[2,1-b][1,3,4]thiadiazol-2-yl]-N-methyl-N-(1-methylpiperidin-4-yl)piperidine-4-carboxamide], the viability at 96 h, 5 µM in data set [3] (first FS column) turned out to be 65%; in data set [3] (second FS column), 28%. Also, the viability at 5 µM amounted to 1% in data set [4] (first HCT116 column) and 0% in data set [4] (second HCT116 column).
`CC(C)c1ccc(-c2cn3nc(N4CCC(C(=O)N5CCCCC5CCN5CCOCC5)CC4)sc3n2)cc1` (centres unmarked) [Compound Z522-0234, 6-(4-isopropylphenyl)-2-(4-{[2-(2-morpholin-4-ylethyl)piperidin-1-yl]carbonyl}piperidin-1-yl)imidazo[2,1-b][1,3,4]thiadiazole]: the viability at 5 µM in data set [1] (first HT29 column) amounted to 12%; in data set [1] (second HT29 column) it was 7%; in data set [4] (first HCT116 column) it was 60%; in data set [4] (second HCT116 column) it was 54%. The results for the viability at 96 h, 5 µM in data set [3] (first FS column) and in data set [3] (second FS column) were 62% and 105%, respectively.
Consider `CC(C)c1ccc(-c2cn3nc(N4CCC(C(=O)N5CCCN(C)CC5)CC4)sc3n2)cc1` [Compound Z522-0224, 6-(4-isopropylphenyl)-2-{4-[(4-methyl-1,4-diazepan-1-yl)carbonyl]piperidin-1-yl}imidazo[2,1-b][1,3,4]thiadiazole], for which the viability at 5 µM in data set [1] (first HT29 column), in data set [1] (second HT29 column) and in data set [4] (first HCT116 column) was 0% each time. The viability at 96 h, 5 µM in data set [3] (first FS column) was 60%; in data set [3] (second FS column), 67%.
Consider `O=C(C1CCN(c2nn3cc(-c4ccc(Cl)cc4)nc3s2)CC1)N1CCCCC1CN1CCCC1` (centres unmarked) [Compound Z522-0212, 6-(4-chlorophenyl)-2-(4-{[2-(pyrrolidin-1-ylmethyl)piperidin-1-yl]carbonyl}piperidin-1-yl)imidazo[2,1-b][1,3,4]thiadiazole], for which the figures for the viability at 5 µM in data set [1] (first HT29 column), in data set [1] (second HT29 column) and in data set [4] (first HCT116 column) were 1%, 0% and 2%, respectively. Also, in data set [3] (second FS column), the viability at 96 h, 5 µM came out at 1%.
On to `O=C(C1CCN(c2nn3cc(-c4ccc(Cl)cc4)nc3s2)CC1)N1CCCCC1CCN1CCOCC1` (centres unmarked) [Compound Z522-0211, 6-(4-chlorophenyl)-2-(4-{[2-(2-morpholin-4-ylethyl)piperidin-1-yl]carbonyl}piperidin-1-yl)imidazo[2,1-b][1,3,4]thiadiazole], for which the viability at 5 µM amounted to 64% in data set [1] (first HT29 column), 60% in data set [1] (second HT29 column), 72% in data set [4] (first HCT116 column) and 61% in data set [4] (second HCT116 column). In addition, the figures for the viability at 96 h, 5 µM in data set [3] (first FS column) and in data set [3] (second FS column) were 75% and 81%, respectively.
Consider `CCN(CC)CCN(CC)C(=O)C1CCN(c2nn3cc(-c4ccc(C(C)C)cc4)nc3s2)CC1` [Compound Z522-0222, N-[2-(diethylamino)ethyl]-N-ethyl-1-[6-(4-isopropylphenyl)imidazo[2,1-b][1,3,4]thiadiazol-2-yl]piperidine-4-carboxamide], for which the viability at 96 h, 5 µM in data set [3] (first FS column) and in data set [3] (second FS column) was 56% throughout. Besides, in data set [4] (first HCT116 column), the viability at 5 µM was 1%.
For `CN1CCC(N2CCN(C(=O)C3CCN(c4nn5cc(-c6ccc(Cl)cc6)nc5s4)CC3)CC2)CC1` [Compound Z522-0207, 6-(4-chlorophenyl)-2-(4-{[4-(1-methylpiperidin-4-yl)piperazin-1-yl]carbonyl}piperidin-1-yl)imidazo[2,1-b][1,3,4]thiadiazole], the viability at 5 µM was found to be 3% in data set [1] (first HT29 column), 0% in data set [1] (second HT29 column), 0% in data set [4] (first HCT116 column) and 4% in data set [4] (second HCT116 column). The results for the viability at 96 h, 5 µM in data set [3] (first FS column) and in data set [3] (second FS column) were 3% and 16%, respectively.
As for `CN1CCC(N(C)C(=O)C2CCN(c3nn4cc(-c5ccc(Cl)cc5)nc4s3)CC2)CC1` [Compound Z522-0202, 1-[6-(4-chlorophenyl)imidazo[2,1-b][1,3,4]thiadiazol-2-yl]-N-methyl-N-(1-methylpiperidin-4-yl)piperidine-4-carboxamide], the viability at 5 µM was 1% in data set [1] (first HT29 column), 0% in data set [1] (second HT29 column) and 5% in data set [4] (first HCT116 column). Further, the viability at 96 h, 5 µM amounted to 73% in data set [3] (first FS column) and 69% in data set [3] (second FS column).
Take `CN(C)CCN(Cc1ccco1)C(=O)C1CCN(c2nn3cc(-c4ccc(Cl)cc4)nc3s2)CC1` [Compound Z522-0220, 1-[6-(4-chlorophenyl)imidazo[2,1-b][1,3,4]thiadiazol-2-yl]-N-[2-(dimethylamino)ethyl]-N-(2-furylmethyl)piperidine-4-carboxamide]: the viability at 5 µM was 0% in data set [1] (first HT29 column), 1% in data set [4] (first HCT116 column) and 3% in data set [4] (second HCT116 column). For the same compound, the viability at 96 h, 5 µM in data set [3] (first FS column) is 61%; in data set [3] (second FS column), 49%.
As to `CN(C)CCN1CCN(C(=O)C2CCN(c3nn4cc(-c5ccc(Cl)cc5)nc4s3)CC2)CC1` [Compound Z522-0206], the values for the viability at 96 h, 5 µM in data set [3] (first FS column) and in data set [3] (second FS column) were 2% and 6%, respectively. For the same compound, the viability at 5 µM in data set [4] (first HCT116 column) worked out at 1%.
As for `CC(C)c1ccc(-c2cn3nc(N4CCC(C(=O)N5CCN(C6CCN(C)CC6)CC5)CC4)sc3n2)cc1` [Compound Z522-0230, 6-(4-isopropylphenyl)-2-(4-{[4-(1-methylpiperidin-4-yl)piperazin-1-yl]carbonyl}piperidin-1-yl)imidazo[2,1-b][1,3,4]thiadiazole], the viability at 96 h, 5 µM in data set [3] (first FS column) is 22%; in data set [3] (second FS column), 39%. The viability at 5 µM in data set [4] (first HCT116 column) was 2%; in data set [4] (second HCT116 column), 0%.
Regarding `CCN1CCN(CC2CCN(C(=O)C3CCN(c4nn5cc(-c6ccc(C(C)C)cc6)nc5s4)CC3)CC2)CC1` [Compound Z522-0244, 2-[4-({4-[(4-ethylpiperazin-1-yl)methyl]piperidin-1-yl}carbonyl)piperidin-1-yl]-6-(4-isopropylphenyl) imidazo[2,1-b][1,3,4]thiadiazole], the viability at 5 µM in data set [1] (first HT29 column) was determined as 1%; in data set [1] (second HT29 column), 0%; in data set [2] (second RKO column), 0%; in data set [4] (second HCT116 column), 0%.
`CCN1CCN(CC2CCN(C(=O)C3CCN(c4nn5cc(-c6ccc(Cl)cc6)nc5s4)CC3)CC2)CC1` [Compound Z522-0221, 6-(4-chlorophenyl)-2-[4-({4-[(4-ethylpiperazin-1-yl)methyl]piperidin-1-yl}carbonyl)piperidin-1-yl]imidazo[2,1-b][1,3,4]thiadiazole]: the viability at 5 µM in data set [4] (first HCT116 column) and in data set [4] (second HCT116 column) was 1% throughout.
For the compound `CCN(CC)CCN(CC)C(=O)C1CCN(c2nn3cc(-c4ccc(Cl)cc4)nc3s2)CC1` [Compound Z522-0199, 1-[6-(4-chlorophenyl)imidazo[2,1-b][1,3,4]thiadiazol-2-yl]-N-[2-(diethylamino)ethyl]-N-ethylpiperidine-4-carboxamide], the viability at 5 µM in data set [1] (second HT29 column) is 1%. In addition, the values for the viability at 96 h, 5 µM in data set [3] (first FS column) and in data set [3] (second FS column) were 19% and 21%, respectively.
In the case of `CN(C)CCNC(=O)CN1CCN(C(=O)C2CCN(c3nn4cc(-c5ccc(Cl)cc5)nc4s3)CC2)CC1` [Compound Z522-0218, 2-[4-({1-[6-(4-chlorophenyl)imidazo[2,1-b][1,3,4]thiadiazol-2-yl]piperidin-4-yl}carbonyl)piperazin-1-yl]-N-[2-(dimethylamino)ethyl] acetamide], the viability at 5 µM in data set [1] (first HT29 column) was 3%; in data set [1] (second HT29 column) it was 4%; in data set [4] (first HCT116 column) it was 51%; in data set [4] (second HCT116 column), 19%. For the same compound, the results for the viability at 96 h, 5 µM in data set [3] (first FS column) and in data set [3] (second FS column) were 82% and 84%, respectively.
